Test results from patent publication US8865728B2, “Combinations comprising methotrexate and DHODH inhibitors” (Almirall, S.A., priority 2008, dated 2014).
“Also recorded” adds a separate entry of the source.

How the values were obtained:
[1] = Acute hepatotoxicity assay in Swiss mice (plasma liver markers); type: in vivo; details: for ALT plasma level / AST plasma level / BIL (total bilirubin) plasma level: Swiss mice, single 100 mg/kg intraperitoneal, 24 h after administration
Method: Acute hepatotoxicity assays were performed in Swiss mice. Animals received a single administration of either vehicle, or 100 mg/kg of teriflunomide or a compound of the present invention (compounds from the list indicated previously) by intraperitoneal route. Twenty-four hours later, animals were sacrificed and the levels of liver markers AST(aspartate aminotransferase), ALT(alanine aminotransferase) and BIL(total bilirubin) in plasma were determined.

human DHODH = human DHODH (Homo sapiens, UniProt Q02127); assay: Inhibition of human DHODH activity assay (DCIP chromogen reduction); type: biochemical; details: chromogen reduction assay with DCIP, human enzyme extract; read-out: hDHODH IC50
Sequence of human DHODH (Q02127 whole entry): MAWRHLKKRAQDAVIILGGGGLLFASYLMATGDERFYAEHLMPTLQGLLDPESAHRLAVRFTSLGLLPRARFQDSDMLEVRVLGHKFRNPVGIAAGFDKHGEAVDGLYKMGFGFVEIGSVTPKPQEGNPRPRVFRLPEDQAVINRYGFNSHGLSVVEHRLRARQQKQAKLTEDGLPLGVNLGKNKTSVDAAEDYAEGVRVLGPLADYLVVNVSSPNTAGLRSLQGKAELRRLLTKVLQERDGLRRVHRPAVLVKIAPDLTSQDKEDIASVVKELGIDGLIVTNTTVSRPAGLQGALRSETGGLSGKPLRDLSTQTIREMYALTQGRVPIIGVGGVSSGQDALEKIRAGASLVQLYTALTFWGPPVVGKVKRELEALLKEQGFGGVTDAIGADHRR
Method: DHODH activity and its inhibition were studied using a chromogen reduction assay with DCIP (2,6-dichlorophenol-indophenol).
Enzyme extracts (8 μl, ˜1.5 μg of human protein) were incubated in 96-well plates. The assay mixture (200 μl) contained 200 μM CoQD, 100 μM L-DHO, 120 μM DCIP in the assay buffer (100 mM HEPES pH 8.0, 150 mM NaCl, 10% Glicerol, 0.05% Triton X-100) and 2 μl of test compound.
The reaction was initiated by adding the enzyme and then incubated for 10 min at room temperature before measuring DCIP reduction by counting a decrease in absorbance at 600 nm using standard instrumentation (Spectramax).
All reactions were carried out in duplicate and graphs, determining IC50 values for each compound, were plotted using the ABase software.

[2] = system: rat adjuvant-induced arthritis model (AIA); assay: Efficacy in rat adjuvant-induced arthritis model (AIA), curative protocol; type: in vivo, Wistar rats; details: arthritic rats, oral once a day, MTX 0.05 mg/Kg/day, AUC of right paw volumes days 10-21 vs vehicle; for % AUC inhibition right paw: Teriflunomide 3 mg/Kg/day, one experiment with 6 animals
Method: The effect of DHODH inhibitor compounds were tested in combination with methotrexate (0.05 mg/Kg/day) in the rat adjuvant-induced arthritis model (AIA) in animals with established disease (curative protocol). Briefly, Complete Freund Adjuvant (CFA) was injected into the left hind footpad of Wistar rats, and 10 days later the swelling of the two rear paws was measured with a plethysmometer. […] Compounds were administered orally once a day for 10 days and paw volumes were determined every two days up to day 21.

SMILES	ALT plasma level [1] [IU/l]	AST plasma level [1] [IU/l]	BIL (total bilirubin) plasma level [1] [mg/dL]	IC50 (human DHODH) [nM]	% AUC inhibition right paw [2] [%]	% inhibition of the inflammation (AUC) Right paw ([2]; compound A 3 mg/Kg/day, mean of two independent experiments) [%]	change in plasma liver markers (ALT, AST, BIL) compared to vehicle-treated mice ([1]; mice, intraperitoneal route, 100 mg/kg)
COc1cccc(-c2ccc(Nc3ncccc3C(=O)O)c(F)c2)c1 [Compound 1, 2-(3-Fluoro-3′-methoxybiphenyl-4-ylamino)nicotinic acid]	99	84	0.03				
CCOc1cccc(-c2ccc(Nc3ncccc3C(=O)O)c(F)c2)c1 [Compound 2, 2-(3′-Ethoxy-3-fluorobiphenyl-4-ylamino)nicotinic acid]	35	57	0				
O=C(O)c1cccnc1Nc1ccc(-c2cccc(OC(F)(F)F)c2)cc1F [Compound 3, 2-(3-Fluoro-3′-(trifluoromethoxy)biphenyl-4-ylamino)nicotinic acid]	52	83	0.01				
CCOc1cccc(-c2ccc(Nc3ncccc3C(=O)O)c(OC(F)(F)F)c2)c1 [Compound 4, 2-(3′-Ethoxy-3-(trifluoromethoxy)biphenyl-4-ylamino)nicotinic acid]	70	108	0.05				
CCOc1cccc(-c2cc(F)c(Nc3ncccc3C(=O)O)c(F)c2)c1 [Compound 19, 2-(3′-Ethoxy-3,5-difluorobiphenyl-4-ylamino)nicotinic acid]	60	92	0.05				
COc1cccc(-c2cc(F)c(Nc3ncccc3C(=O)O)c(F)c2)c1 [Compound 20, 2-(3,5-Difluoro-3′-methoxybiphenyl-4-ylamino)nicotinic acid]	73	95	0				
COc1cccc(-c2ccc(Nc3cnccc3C(=O)[O-])c(OC(F)(F)F)c2)c1.[Li+] [Compound 23, Lithium 3-(3′-methoxy-3-(trifluoromethoxy)biphenyl-4-ylamino)isonicotinate]	35	72	0				
COc1cccc(-c2cc(F)c(Nc3ncc(C)cc3C(=O)O)c(F)c2)c1 [Compound 35, 2-(3,5-Difluoro-3′-methoxybiphenyl-4-ylamino)-5-methylnicotinic acid]				12			
O=C(O)c1cccnc1Nc1c(F)cc(-c2cccc(OC3CC3)c2)cc1F [Compound 47, 2-(3′-cyclopropoxy-3,5-difluorobiphenyl-4-ylamino)nicotinic acid]	66	91	0.14				
Cc1c(-c2ccccc2)cc(F)c(Nc2ncccc2C(=O)O)c1F [Compound 48, 2-(3,5-difluoro-2-methylbiphenyl-4-ylamino)nicotinic acid]	44	95	0.08				
Cc1c(-c2ccccc2Cl)cc(F)c(Nc2ncccc2C(=O)O)c1F [Compound 57, 2-(2′-chloro-3,5-difluoro-2-methylbiphenyl-4-ylamino)nicotinic acid]	60	109	0.06				
CN(Cc1cnc2nc(N)nc(N)c2n1)c1ccc(C(=O)N[C@@H](CCC(=O)O)C(=O)O)cc1 [MTX, Methotrexate]					24	37	
C/C(O)=C(\C#N)C(=O)Nc1ccc(C(F)(F)F)cc1 [Teriflunomide, reference compound]	423	542	0.5		56		dramatic increase in the three liver markers; also recorded: drastic increase in the levels of transaminases and bilirrubin in plasma
